Reference: US20250313535A1, “ALPHA 4 BETA 7 INTEGRIN MODULATORS AND USES THEREOF” (DICE MOLECULES SV, INC., priority 2022, published 2025)
Read-outs that look alike come from different tables or passages of the source.

Legend:
[1] = biological target: α4β1 integrin (Homo sapiens (Human), UniProt P05556+P13612); test: Integrin Adhesion Assay: Protocol 5 (VCAM-coated plate, RPMI-8866 cells with stable LOF mutation of the ITGB7 gene); assay type: cell-based
Method: (§1) Integrin Adhesion Assay Using Genetically Modified Cells Generating Stable Cell Lines with ITGB1 or ITGB7 Knockout (Protocol 4 and Protocol 5)
(§2) To obtain subclones of the RPMI-8866 cell line (Sigma-Aldrich, St. Louis, MO) that were individually deficient in either integrin β1 or integrin β 7, CRISPR/Cas9 technology was employed (PMID: 30108345). Specifically, a Neon™ Transfection System System 10 μL Kit and the Neon™ Transfection device (both from ThermoFisher Scientific) were used.
(§3) The protocol was performed following the manufacturer instructions, described in https://www.thermofisher.com/document-connect/document-connect.html?url=https % 3A%2F%2F assets.thermofisher.com%2FTFS-Assets%2FLSG%2Fmanuals%2FMAN0017066_TrueCut Cas9_Protein_v2_UG.pdf, which is incorporated by reference herein in its entirety.
(§4) RPMI-8866 cells were transferred to a flask the day before transfection, at a confluence of 5×10^5 cells/mL. The cells were washed with PBS and resuspended in buffer R (Neon™ Transfection System, Invitrogen) to 2×10^5 cells/10 uL for each reaction. The TrueCut™ HiFi Cas9 Protein (1250 ng per reaction) was mixed with TrueGuide™ sgRNA (7.5 pmoles each/pool of 3 sequences, table 1) (ThermoFisher Scientific). This mix was combined with the RPMI-8866 cells and electroporated on the Neon system at 1700V/20 ms/1 pulse. Transfected cells were allowed to recover in 500 μL pre-warmed cRMPI media (RPMI-1640 media with 10% FBS, 100 U/ml Penicillin-Streptomycin) at 37° C., 5% CO2 for 24 hours. At that time, an extra 500 μL of pre-warmed cRMPI media was added, and cells were incubated for another 24 hours.
(§5) For flow cytometry analysis, 100 μL of the transfected cells were collected and stained with anti-itga4 (Clone: 9F10, PE, BD Pharmingen™), anti-itgb 1 (Clone: (TS2/16), Super Bright 436, eBioscience), anti-itgb7 (Clone: FIB504, Brilliant Violet 650, BD Pharmingen™) and viability dye (LIVE/DEAD™ Fixable Green Dead Cell Stain, Invitrogen™). An Attune NxT Flow Cytometer was used to analyze the CRISPR-transfected cells. The flow cytometry results were analyzed using FlowJo™ v10.8.1 Software (BD Life Sciences). Fluorescence minus one (FMO) controls were used to select appropriate gates for data analysis.
(§6) To generate an individual clones of cells deficient in either ITGB7 or ITGB1 by limiting dilution assay, the transfected cells were resuspended at 5 cells/mL and seeded in 384 well plates. Outgrowth of clones was monitored using a microscope, and 24 clones were transferred for expansion. Expression of either integrin was verified by flow cytometry in each of the clones. One clone of each integrin b7 or the integrin b1 knockout was chosen, expanded and aliquots were frozen in vapor phase liquid nitrogen.
Integrin Adhesion Assay: Protocol 5
VCAM (R&D Systems, 0.1 ug) was diluted in 50 μL PBS, added to each well of an opaque ELISA plate (Thermo), and incubated overnight at 4° C. Coated plates were washed once with PBS and then blocked with 200 μL of assay buffer (10 mM HEPES, 150 mM NaCl, 1 mM MnCl2, 0.1 mM CaCl2), 1% BSA) for 1 hour at 37° C. and 5% CO2. After incubation, buffer was aspirated from the plates and 50 μL of fresh assay buffer was added. Compounds were added by compounds dispenser (Tecan) and DMSO concentration was normalized to 1% across each plate. 50 μL of RPMI-8866 cells with a stable LOF mutation of the ITGB7 gene (2×10^6 per mL) were added to each well and the plates were incubated for 1 hour at 37° C. and 5% CO2. After incubation, plates were allowed to cool to RT for 10 minutes before being washed four times in assay buffer by an automated plate washer (BioTek). After washing, 100 μL of a 1:1 mixture of assay buffer and CellTiter GLO 2.0 reagent (Promega) were added to each well. Plates were mixed for 2 minutes at 1000 rpm and then allowed to incubate an additional 10 minutes before reading out luminescence on a Tecan Spark plate reader. […]

[2] = biological target: α4β7 integrin (Homo sapiens (Human), UniProt P13612+P26010); test: Integrin Adhesion Assay: Protocol 4 (MAdCAM-coated plate, RPMI-8866 cells with stable LOF mutation of the ITGB1 gene); assay type: cell-based
Method: as §1, §2, §3, §4, §5, §6
Integrin Adhesion Assay: Protocol 4
MAdCAM (R&D Systems, 0.1 ug) was diluted in 50 μL PBS, added to each well of an opaque ELISA plate (Thermo), and incubated overnight at 4° C. Coated plates were washed once with PBS and then blocked with 200 μL of assay buffer (10 mM HEPES, 150 mM NaCl, 1 mM MnCl2, 0.1 mM CaCl2), 1% BSA) for 1 hour at 37° C. and 5% CO2. After incubation, buffer was aspirated from the plates and 50 μL of fresh assay buffer was added. Compounds were added using a compounds dispenser (Tecan), and DMSO concentration was normalized to 1% across each plate. 50 μL of RPMI-8866 cells with a stable loss of function (LOF) mutation of the ITGB1 gene (2×10^6 per mL) were added to each well and the plates were incubated for 1 hour at 37° C. at a CO2 concentration of 5%. After incubation, plates were allowed to cool to RT for 10 minutes before being washed four times in assay buffer by an automated plate washer (BioTek). After washing, 100 μL of a 1:1 mixture of assay buffer and CellTiter GLO 2.0 reagent (Promega) were added to each well. Plates were mixed for 2 minutes at 1000 rpm and then allowed to incubate an additional 10 minutes before reading out luminescence on a Tecan Spark plate reader. […]

[3] = Protocol 5, RPMI-8866 cells with LOF mutation of ITGB7, VCAM, read-out: Mean IC50 α4β1 KO
[4] = Protocol 4, RPMI-8866 cells with LOF mutation of ITGB1, MAdCAM, read-out: Mean IC50 α4β7 KO
[5] = RPMI-8866 cells with stable LOF mutation of the ITGB7 gene, read-out: Mean IC50 α4β1 KO^b
[6] = RPMI-8866 cells with stable LOF mutation of the ITGB1 gene, read-out: Mean IC50 α4β7 KO^a

Sequence of α4β7 integrin (P13612 34-1032): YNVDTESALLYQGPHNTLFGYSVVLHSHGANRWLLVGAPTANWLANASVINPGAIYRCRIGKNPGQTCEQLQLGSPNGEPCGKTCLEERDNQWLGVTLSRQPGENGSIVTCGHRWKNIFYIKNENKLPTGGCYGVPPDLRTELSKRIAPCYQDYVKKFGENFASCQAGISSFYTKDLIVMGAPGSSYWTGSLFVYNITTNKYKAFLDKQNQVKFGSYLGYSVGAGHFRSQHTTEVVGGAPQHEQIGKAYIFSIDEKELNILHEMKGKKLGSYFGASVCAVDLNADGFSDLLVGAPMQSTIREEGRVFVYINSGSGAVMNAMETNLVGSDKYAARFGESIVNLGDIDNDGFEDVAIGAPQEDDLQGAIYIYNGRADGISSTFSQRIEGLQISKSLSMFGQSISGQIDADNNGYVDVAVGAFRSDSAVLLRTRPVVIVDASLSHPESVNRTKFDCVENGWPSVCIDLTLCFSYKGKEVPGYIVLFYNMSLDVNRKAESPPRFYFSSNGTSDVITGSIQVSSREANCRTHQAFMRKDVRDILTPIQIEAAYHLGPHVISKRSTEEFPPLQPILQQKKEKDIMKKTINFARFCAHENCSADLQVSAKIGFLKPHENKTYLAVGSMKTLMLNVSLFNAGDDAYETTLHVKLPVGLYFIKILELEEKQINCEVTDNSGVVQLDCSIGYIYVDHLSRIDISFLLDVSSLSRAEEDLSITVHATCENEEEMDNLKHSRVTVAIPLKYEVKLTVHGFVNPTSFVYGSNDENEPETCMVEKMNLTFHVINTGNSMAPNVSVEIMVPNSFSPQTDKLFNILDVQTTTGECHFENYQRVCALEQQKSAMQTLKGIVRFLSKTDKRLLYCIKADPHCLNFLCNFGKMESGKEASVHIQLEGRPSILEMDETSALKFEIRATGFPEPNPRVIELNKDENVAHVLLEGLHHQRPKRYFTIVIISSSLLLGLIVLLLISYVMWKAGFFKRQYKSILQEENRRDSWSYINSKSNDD
Sequence of α4β7 integrin (P26010 20-798): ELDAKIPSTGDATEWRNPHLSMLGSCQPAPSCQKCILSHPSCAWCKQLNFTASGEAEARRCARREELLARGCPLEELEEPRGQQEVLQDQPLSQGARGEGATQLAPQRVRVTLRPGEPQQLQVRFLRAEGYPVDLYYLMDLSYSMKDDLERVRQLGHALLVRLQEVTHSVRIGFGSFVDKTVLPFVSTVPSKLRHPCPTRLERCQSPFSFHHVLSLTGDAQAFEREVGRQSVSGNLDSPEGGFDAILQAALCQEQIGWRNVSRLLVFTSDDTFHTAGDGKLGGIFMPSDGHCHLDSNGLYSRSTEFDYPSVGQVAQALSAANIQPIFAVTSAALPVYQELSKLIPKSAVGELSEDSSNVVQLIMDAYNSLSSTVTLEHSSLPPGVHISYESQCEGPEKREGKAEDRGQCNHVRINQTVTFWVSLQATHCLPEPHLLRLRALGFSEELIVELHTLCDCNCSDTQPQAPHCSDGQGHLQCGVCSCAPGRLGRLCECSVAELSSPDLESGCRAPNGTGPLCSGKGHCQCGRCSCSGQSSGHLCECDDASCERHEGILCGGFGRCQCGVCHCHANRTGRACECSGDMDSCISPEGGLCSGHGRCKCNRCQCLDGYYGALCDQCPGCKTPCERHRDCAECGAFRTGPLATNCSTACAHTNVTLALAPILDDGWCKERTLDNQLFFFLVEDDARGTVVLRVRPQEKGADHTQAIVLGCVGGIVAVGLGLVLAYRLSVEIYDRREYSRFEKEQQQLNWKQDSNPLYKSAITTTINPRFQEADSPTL
Sequence of α4β1 integrin (P13612 34-1032): as the sequence (P13612 34-1032) above
Sequence of α4β1 integrin (P05556 21-798): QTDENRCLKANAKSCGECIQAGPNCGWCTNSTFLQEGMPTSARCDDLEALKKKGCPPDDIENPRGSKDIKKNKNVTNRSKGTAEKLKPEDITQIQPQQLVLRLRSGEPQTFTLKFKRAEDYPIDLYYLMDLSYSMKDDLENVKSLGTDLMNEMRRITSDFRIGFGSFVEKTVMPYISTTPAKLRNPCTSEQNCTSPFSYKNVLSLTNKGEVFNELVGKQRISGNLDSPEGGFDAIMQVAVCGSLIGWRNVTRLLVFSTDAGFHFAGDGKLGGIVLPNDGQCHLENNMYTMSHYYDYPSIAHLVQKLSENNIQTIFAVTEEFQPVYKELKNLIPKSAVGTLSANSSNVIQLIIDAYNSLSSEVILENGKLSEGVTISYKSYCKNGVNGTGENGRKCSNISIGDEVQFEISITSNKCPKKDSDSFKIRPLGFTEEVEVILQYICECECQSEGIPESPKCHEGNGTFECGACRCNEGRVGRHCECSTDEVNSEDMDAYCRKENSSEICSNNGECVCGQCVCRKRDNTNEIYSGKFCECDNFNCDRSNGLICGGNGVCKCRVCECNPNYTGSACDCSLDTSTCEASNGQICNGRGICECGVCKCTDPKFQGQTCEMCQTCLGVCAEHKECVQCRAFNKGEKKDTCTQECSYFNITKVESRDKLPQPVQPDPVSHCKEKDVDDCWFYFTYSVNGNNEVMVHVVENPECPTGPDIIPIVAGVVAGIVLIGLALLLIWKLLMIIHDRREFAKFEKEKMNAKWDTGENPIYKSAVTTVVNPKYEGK

Row | SMILES | IC50 [2, 4] [µM] | IC50 [2, 6] [µM] | further results
1 | CN(C)Cc1ccc(-c2cccc3c(C[C@H](NC(=O)C4(C(F)(F)F)CCN(CC(F)(F)F)CC4)C(=O)O)cccc23)c2cnccc12 [Compound 695] | < 0.01 |  | IC50 [1, 3]: > 1 µM
2 | CC1CCN(Cc2ccc3c(c2)c(C(F)(F)F)c(-c2cccc4c(C[C@H](NC(=O)C5(C(F)(F)F)CCN(CC(F)F)CC5)C(=O)O)cccc24)c(=O)n3C)CCC1(F)F (stereo partly drawn) [Compound 840] | < 0.01 |  | IC50 [1, 3]: 0.01 to 0.1 µM
3 | COc1cc2c(c(C(F)(F)F)c1-c1cccc3c(C[C@H](NC(=O)C4(C(F)(F)F)CCN(CC(F)(F)F)CC4)C(=O)O)cccc13)CCN(C)C2 [Compound 726] | < 0.01 |  | IC50 [1, 3]: 0.01 to 0.1 µM
4 | CC[C@H](N1CCC(C(=O)N[C@@H](Cc2cccc3c(-c4c(C(F)(F)F)c5ccccc5n(C)c4=O)cccc23)C(=O)O)(C(F)(F)F)CC1)C(F)(F)F [Compound 518] |  | > 1 | IC50 [1, 5]: > 1 µM
5 | O=C(O)[C@H](Cc1cccc2c(-c3ncc(CN4CCN(C5CC5)CC4)cc3C3CC3)cccc12)NC(=O)C1(C(F)(F)F)CCN(CC(F)F)CC1 [Compound 952] | < 0.01 |  | IC50 [1, 3]: 0.1 to 1 µM
6 | O=C(O)[C@H](Cc1cccc2c(-c3nccc4ccc(CCCN5CCC6(CC5)CC6)cc34)cccc12)NC(=O)C1(C(F)(F)F)CCN(CC(F)F)CC1 [Compound 774] | < 0.01 |  | 
7 | C[C@@H]1CN(CCc2cnc(-c3cccc4c(C[C@H](NC(=O)C5(C(F)(F)F)CCN(CC(F)(F)F)CC5)C(=O)O)cccc34)c3ccccc23)C[C@H](C)O1 [Compound 979] | < 0.01 |  | 
8 | O=C(O)[C@H](Cc1cccc2c(-c3nccc4ccc(CCCN5CCC6(CC5)CC6)cc34)cccc12)NC(=O)C1(C(F)(F)F)CCN(CC(F)(F)F)CC1 [Compound 743] | < 0.01 |  | 
9 | O=C(O)[C@H](Cc1cccc2c(-n3cccc(C(F)(F)F)c3=O)cccc12)NC(=O)C1(C(F)(F)F)CCN(CC(F)(F)F)CC1 [Compound 1055] | 0.1 to 1 |  | 
10 | Cn1c(=O)c(-c2cccc3c(C[C@H](NC(=O)C4(C)C[C@H]5CN(CC(F)(F)F)C[C@H]5C4)C(=O)O)cccc23)c(C(F)(F)F)c2ccccc21 (stereo partly drawn) [Compound 1047] | 0.1 to 1 |  | 
11 | CC1CC(C)(C(=O)N[C@@H](Cc2cccc3c(-c4c(C(F)(F)F)c5ccccc5n(C)c4=O)cccc23)C(=O)O)CCN1CC(F)(F)F (stereo partly drawn) [Compound 528] |  | > 1 | 
12 | Cc1cc(CN2CCN(C3CC3)CC2)cnc1-c1cccc2c(C[C@H](NC(=O)C3(C(F)(F)F)CCN(CC(F)F)CC3)C(=O)O)cccc12 [Compound 899] | < 0.01 |  | 
13 | CN1CCc2nc(-c3cccc4c(C[C@H](NC(=O)C5(C(F)(F)F)CCN(CC(F)(F)F)CC5)C(=O)O)cccc34)ccc2C1 [Compound 755] | < 0.01 |  | 
14 | CC(C)CC1CC(C)(C(=O)N[C@@H](Cc2cccc3c(-c4c(C(F)(F)F)c5ccccc5n(C)c4=O)cccc23)C(=O)O)CCN1CC(F)(F)F (stereo partly drawn) [Compound 529] |  | > 1 | 

The next lines start with results.

Row | IC50 [2, 4] [µM] | IC50 [2, 6] [µM] | SMILES | further results
15 | 0.01 to 0.1 |  | O=C(O)[C@H](Cc1cccc2c(-c3ncc(CN4CCC(F)CC4)c4ccccc34)cccc12)NC(=O)C1(C(F)(F)F)CCN(CC(F)(F)F)CC1 [Compound 871] | IC50 [1, 3]: > 1 µM
16 | < 0.01 |  | COc1ccc(CCN2CCC(F)(F)CC2)c(OC)c1-c1cccc2c(C[C@H](NC(=O)C3(C(F)(F)F)CCN(CC(F)(F)F)CC3)C(=O)O)cccc12 [Compound 958] | IC50 [1, 3]: 0.1 to 1 µM
17 | < 0.01 |  | COc1ccc(CN2CCC(C(F)(F)F)CC2)c(OC)c1-c1cccc2c(C[C@H](NC(=O)C3(C(F)(F)F)CCN(CC(F)(F)F)CC3)C(=O)O)cccc12 [Compound 844] | IC50 [1, 3]: 0.1 to 1 µM
18 | < 0.01 |  | COc1cc(C(F)(F)F)cc(CN2CCCCC2)c1-c1cccc2c(C[C@H](NC(=O)c3c(C)cccc3F)C(=O)O)cccc12 [Compound 1009] | IC50 [1, 3]: > 1 µM
19 |  | < 0.01 | COc1ccc(CN(C)C)c(OC)c1-c1cccc2c(C[C@H](NC(=O)c3c(F)ccc(F)c3C)C(=O)O)cccc12 [Compound 589] | IC50 [1, 5]: > 1 µM
20 |  | < 0.01 | COc1ccc(CN2CCCC(F)C2)c(OC)c1-c1cccc2c(C[C@H](NC(=O)c3c(C)cc(C45CCOCC4C5)cc3F)C(=O)O)cccc12 (stereo partly drawn) [Compound 663] | 
21 | < 0.01 |  | COc1c(CN(C)C)ccc(C)c1-c1cccc2c(C[C@H](NC(=O)c3c(C)cccc3F)C(=O)O)cccc12 [Compound 1010] | 
22 |  | 0.1 to 1 | CO[C@H]1C[C@@H](c2cc(F)c(C(=O)N[C@@H](Cc3cccc4c(-c5c(C(F)(F)F)c6ccccc6n(C)c5=O)cccc34)C(=O)O)c(F)c2)N(C)C1 [Compound 466] | 
23 |  | 0.1 to 1 | CO[C@H]1C[C@H](c2cc(F)c(C(=O)N[C@@H](Cc3cccc4c(-c5c(C(F)(F)F)c6ccccc6n(C)c5=O)cccc34)C(=O)O)c(F)c2)N(C)C1 [Compound 467] | 
24 | < 0.01 |  | COc1ccc(CN2CCC(C)(C)CC2)cc1-c1cccc2c(C[C@H](NC(=O)C3(C(F)(F)F)CCN(CC(F)(F)F)CC3)C(=O)O)cccc12 [Compound 941] | 
25 |  | 0.1 to 1 | Cn1c(=O)c(-c2cccc3c(C[C@H](NC(=O)c4c(F)ccc(C5CC5)c4F)C(=O)O)cccc23)c(C(F)(F)F)c2ccccc21 [Compound 488] | 
26 | < 0.01 |  | CC1(C)CCN(Cc2cnc(-c3cccc4c(C[C@H](NC(=O)C5(C(F)(F)F)CCN(C6COC6)CC5)C(=O)O)cccc34)c3ccccc23)CC1 [Compound 686] | 
27 |  | 0.01 to 0.1 | COc1ccc(CN2CC3CCC(C2)O3)c(OC)c1-c1cccc2c(C[C@H](NC(=O)c3c(C)cccc3F)C(=O)O)cccc12 [Compound 568] | 
28 | < 0.01 |  | COc1ccc(CN2CCCCC2)cc1-c1cccc2c(C[C@H](NC(=O)C3(C(F)(F)F)CCN(CC(F)F)CC3)C(=O)O)cccc12 [Compound 937] | 
29 | < 0.01 |  | COc1ccc(CN2CCC(C(F)(F)F)CC2)cc1-c1cccc2c(C[C@H](NC(=O)C3(C(F)(F)F)CCN(CC(F)F)CC3)C(=O)O)cccc12 [Compound 938] | 
30 |  | < 0.01 | COc1cccc(CN2CCCCC2)c1-c1cccc2c(C[C@H](NC(=O)c3c(F)cccc3C3CC3)C(=O)O)cccc12 [Compound 541] | 
31 |  | 0.01 to 0.1 | O=C(N[C@@H](Cc1cccc2c(-c3ncc(CN4CCCCC4)c4ccccc34)cccc12)C(=O)O)c1c(F)cccc1F [Compound 678] | 
32 |  | > 1 | O=C(N[C@@H](Cc1cccc2c(-c3cccc4ccncc34)cccc12)C(=O)O)c1c(F)cccc1F [Compound 295] | 
